Molecular target: T1, PTGDR (Homo sapiens, UniProt Q13258)
T1 construct: purchased Promega (in-house HiBiT-GPCR construct library, NanoBRET)
T1 sequence (Q13258 1-359): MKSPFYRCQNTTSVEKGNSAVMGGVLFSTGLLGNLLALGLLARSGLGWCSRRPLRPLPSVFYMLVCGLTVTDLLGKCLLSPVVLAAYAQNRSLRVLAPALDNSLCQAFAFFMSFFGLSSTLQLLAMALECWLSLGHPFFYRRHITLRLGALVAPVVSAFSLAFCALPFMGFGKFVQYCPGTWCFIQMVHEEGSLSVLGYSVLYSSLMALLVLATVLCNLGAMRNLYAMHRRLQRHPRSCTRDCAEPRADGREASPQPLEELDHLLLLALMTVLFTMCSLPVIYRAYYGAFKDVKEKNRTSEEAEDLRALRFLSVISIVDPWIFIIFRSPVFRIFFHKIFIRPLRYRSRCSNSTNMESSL
Assay: NanoBRET screen HiBiT-PTGDR in HEK293
Format: binding
Description: Each tracer candidate was screened across the entire library of HiBiT-GPCR constructs using NanoBRET as the detection modality. As depicted in Figure 4A, the specificity of interactions was evaluated through decrease in BRET due to competitive displacement of a bound tracer by excess parental compound. Each tracer was analyzed for binding to each HiBiT-GPCR fusion in the absence and in the presence of competing parental compound. Briefly, HEK293 cells were transfected with HiBiT-GPCR constructs diluted into promoterless DNA to reduce expression and maximize translocation to the cell surface. Each tracer candidate was then screened at concentrations of 1 μM and 0.1 μM across cells expressing these fusions. Cells were treated for 1.5 h with tracer either alone or in the presence of 20 μM competing parental compound (i.e., control). BRET was measured upon addition of purified LgBiT and subsequent complementation with HiBiT genetically fused to a GPCR. The specificity of interactions was assessed through a decrease in BRET signal due to competitive displacement of the bound tracer. To further gauge the robustness of these interactions, the fold response over the control (i.e., BRETtracer/BRETcontrol) was calculated. We chose a 1.5-fold response, which translates to ≥7-fold signal over noise as the minimal threshold required to score an interaction as positive. […]. Below we highlight the screening results obtained for our exemplary fluorescent tracers based on Clozapine, Amitriptyline and AZD1283.
HiBiT-GPCR DNA constructs were diluted in 10 mM Tris pH 8 to a final concentration of 0.01 μg/μL, arrayed in 96-well plates and stored at −20 °C. For transfection, HEK293 cells were suspended in Opti-MEM (without phenol red) supplemented with 2% fetal bovine serum (Seradigm) and 100 units/mL penicillin–streptomycin (Gibco) at a final concentration of 220,000 cells/mL and dispensed into white 96-well plates at 90 μL/well. Subsequent transfections and screens were carried using an Agilent Bravo Automated Liquid Handling Platform. First, the 96-well HiBiT DNA arrays were diluted 25-fold in Opti-MEM (without serum or phenol red) to a final concentration of 0.0004 μg/μL and 20 μL of the diluted DNAs were transferred into new 96-well plates. Next, promoterless carrier DNA (1 μg/μL) was diluted 25-fold (0.04 μg/μL) and then dispensed into the diluted arrays at 20 μL/well. Following brief mixing, Viafect transfection reagent (Promega) diluted 16-fold into Opti-MEM was dispensed into the plates at 40 μL/well. After mixing by pipetting, plates were incubated for 10 min on the pipetting station deck. The DNA-transfection reagent complexes were then added to plates containing cells. To facilitate the screen, 10 μL of DNA-transfection reagent complexes were added in duplicates to the top 4 and bottom 4 rows, resulting in two identical 48-well arrays per plate. Plates with transfected cells were incubated for 18–20 h at 37 °C/5% CO2. A screen of each tracer across the entire library using two different concentrations requires duplicate plates of transfected cells. Depending on the number of tracers being screened, transfections can be scaled up using the same ratios. The next day, for each tracer, four 20× screening solutions in tracer dilution buffer (Promega) were prepared: two duplicates at final concentration of 20 μM and two duplicates at a final concentration of 2 μM. A competing unmodified compound was added to one of each duplicate at a final concentration of 400 μM. The four resulting solutions were diluted 4-fold in Opti-MEM without serum or phenol red to generate 5× solutions (5 µM and 0.5 µM tracer +/− 100 μM competing compound). To screen the library, a BioTek MultiFlo FX liquid dispenser was used to dispense 22.5 µL of tracer solution to the top 4 rows and 22.5 µL tracer + competing compound solution to the 4 bottom rows. Plates were briefly mixed on an orbital shaker and incubated for 1.5 h at room temperature. […]

SMILES	NanoBRET Fold Response (PTGDR, tracer 0.1μM)	NanoBRET Fold Response (PTGDR, tracer 1μM)	other results
CCOC(=O)c1cc(C#N)c(N2CCC(C(=O)NS(=O)(=O)Cc3ccccc3/C=C/C(=O)NCCNC(=O)CCc3ccc4n3[B-](F)(F)[N+]3=C(c5ccc[nH]5)C=CC3=C4)CC2)nc1C [AZD1283-1-NB590]			NanoBRET Fold Response (PTGDR, 0.1μM): 1.42; NanoBRET Fold Response (PTGDR, 1μM): 1.19
N#CN=C(NCCCOc1cccc(CN2CCCCC2)c1)NCCNC(=O)CCOCCOCCOCCOCCNC(=O)CCc1ccc2n1[B-](F)(F)[N+]1=C(c3ccc[nH]3)C=CC1=C2 [Aminopotentidine-2-NB590]	0.99	0.79	
CN(C)CCC=C1c2ccccc2CCc2ccc(C(=O)NCCNC(=O)CCOCCOCCOCCOCCNC(=O)CCc3ccc4n3[B-](F)(F)[N+]3=C(c5ccc[nH]5)C=CC3=C4)cc21 [Amitriptyline-b-2-NB590]			NanoBRET Fold Response (tracer at 1μM): 1.03
COc1ccc2c(n1)c(CCNC(C)=O)cn2CCNC(=O)CCc1ccc2n1[B-](F)(F)[N+]1=C(c3ccc[nH]3)C=CC1=C2 [Azamelatonin-1-NB590]			NanoBRET Fold Response (0.1μM tracer): 1.13; NanoBRET Fold Response (1μM tracer): 1.18
COc1ccc2[nH]c(-c3ccc(CNC(=O)CCOCCOCCOCCOCCNC(=O)CCc4ccc5n4[B-](F)(F)[N+]4=C(c6ccc[nH]6)C=CC4=C5)cc3)c(CCNC(C)=O)c2n1 [AzomelatoninICO9-2-NB590]			NanoBRET Fold Response (0.1μM tracer): 1.06; NanoBRET Fold Response (1μM tracer): 0.88
O=C(CCOCCOCCOCCOCCNC(=O)CCc1ccc2n1[B-](F)(F)[N+]1=C(c3ccc[nH]3)C=CC1=C2)NCCCN1CCN(C2=Nc3cc(Cl)ccc3Nc3ccccc32)CC1 [Clozapine-a-2-NB590]			NanoBRET Fold Response (PTGDR, 0.1μM tracer): 1.10; NanoBRET Fold Response (PTGDR, 1μM tracer): 0.99
CN1CCN(C2=Nc3cc(Cl)ccc3Nc3ccc(CNC(=O)CCOCCOCCOCCOCCNC(=O)CCc4ccc5n4[B-](F)(F)[N+]4=C(c6ccc[nH]6)C=CC4=C5)cc32)CC1 [Clozapine-b-2-NB590]			NanoBRET Fold Response (PTGDR, 0.1μM tracer): 1.10; NanoBRET Fold Response (PTGDR, 1μM tracer): 1.01
CN1CCN(C2=Nc3cc(Cl)ccc3N(CC(=O)NCCOCCOCCOCCOCCNC(=O)CCc3ccc4n3[B-](F)(F)[N+]3=C(c5ccc[nH]5)C=CC3=C4)c3ccccc32)CC1 [Clozapine-c-2-NB590]			NanoBRET Fold Response (PTGDR, 0.1μM tracer): 1.04; NanoBRET Fold Response (PTGDR, 1μM tracer): 1.07
O=C(CCOCCOCCOCCOCCNC(=O)CCc1ccc2n1[B-](F)(F)[N+]1=C(c3ccc[nH]3)C=CC1=C2)NCCCN1CCN(C2=Nc3ccccc3Oc3ccc(Cl)cc32)CC1 [Loxapine-a-2-NB590]	0.93	0.98	
COc1ccccc1N1CCN(CCCCN2C(=O)c3ccc(CNC(=O)CCOCCOCCOCCOCCNC(=O)CCc4ccc5n4[B-](F)(F)[N+]4=C(c6ccc[nH]6)C=CC4=C5)cc3C2=O)CC1 [NAN-190-2-NB590]	0.97	1.01	
COc1ccccc1N1CCN(CCCCN2C(=O)c3ccc(CNC(=O)CCOCCNC(=O)c4ccc(CNC(=O)CCc5ccc6n5[B-](F)(F)[N+]5=C(c7ccc[nH]7)C=CC5=C6)cc4)cc3C2=O)CC1 [NAN-190-3-NB590]	0.96	0.98	
O=C(CCc1ccc2n1[B-](F)(F)[N+]1=C(c3ccc[nH]3)C=CC1=C2)NCc1ccc(C(=O)NCCOCCC(=O)N[C@@H]2CC[C@@]3(O)[C@H]4Cc5ccc(O)c6c5[C@@]3(CCN4CC3CC3)[C@H]2O6)cc1 [Naltrexone-3-NB590]	0.85	0.97	
Cc1cc2c(s1)Nc1ccccc1N=C2N1CCN(CCCNC(=O)CCOCCOCCOCCOCCNC(=O)CCc2ccc3n2[B-](F)(F)[N+]2=C(c4ccc[nH]4)C=CC2=C3)CC1 [Olanzapine-a-2-NB590]	0.95	1.09	
O=C(CCc1ccc2n1[B-](F)(F)[N+]1=C(c3ccc[nH]3)C=CC1=C2)NCc1ccc(C(=O)NCCOCCOCCNCC(O)COc2cccc3ccccc23)cc1 (stereo not shown) [Propranolol-3-NB590]			NanoBRET Fold Response (PTGDR, 0.1μM): 1.05; NanoBRET Fold Response (PTGDR, 1μM): 0.98
O=C(CCc1ccc2n1[B-](F)(F)[N+]1=C(c3ccc[nH]3)C=CC1=C2)NCCOCCOCCNC(=O)OCCOCCN1CCN(C2=Nc3ccccc3Sc3ccccc32)CC1 [Quetiapine-a-2-NB590]	0.99	1.02	
Cc1nc2n(c(=O)c1CCN1CCC(c3noc4cc(F)ccc34)CC1)CCCC2OC(=O)NCCOCCOCCOCCOCCNC(=O)CCc1ccc2n1[B-](F)(F)[N+]1=C(c3ccc[nH]3)C=CC1=C2 (stereo not shown) [Risperidone-2-NB590]	1.01	0.93	
CC(C)N(CC[C@H](c1ccccc1)c1cc(CCNC(=O)CCOCCOCCOCCOCCNC(=O)CCc2ccc3n2[B-](F)(F)[N+]2=C(c4ccc[nH]4)C=CC2=C3)ccc1O)C(C)C [Tolterodine-2-NB590]	1.16	0.96	
CC(C)N(CC[C@H](c1ccccc1)c1cc(CCNC(=O)c2ccc(CNC(=O)CCc3ccc4n3[B-](F)(F)[N+]3=C(c5ccc[nH]5)C=CC3=C4)cc2)ccc1O)C(C)C [Tolterodine-BZ-NB590]	1.03	0.98	
CCCn1c(=O)c2[nH]c(-c3ccc(OCC(=O)NCCNC(=O)CCOCCNC(=O)c4ccc(CNC(=O)CCc5ccc6n5[B-](F)(F)[N+]5=C(c7ccc[nH]7)C=CC5=C6)cc4)cc3)nc2n(CCC)c1=O [XAC-3-NB590]	1.02	1.06	

— PMC8151276, “An Integrated Approach toward NanoBRET Tracers for Analysis of GPCR Ligand Engagement” (Molecules, 2021)
